{"source": "patent US10314883B2", "about": "“Compositions and methods for regulating blood pressure” (University of Virginia Patent Foundation, priority 2015, dated 2019)", "key": {"[1]": {"tested_on": "thoracodorsal arteries (TDA)", "assay": "Pressure myography of TDAs electroporated with Panx1 WT or YLK>AAA plasmid", "format": "cell-based, mouse", "conditions": "for EC50: Mus musculus, read-out: EC50 of phenylephrine-induced constriction", "experimental": "The contractile responses of pressurized thoracodorsal arteries (TDA) were measured as previously described. Briefly, TDA were isolated and placed in cold Krebs-HEPES until cannulation in a pressure arteriograph (Danish MyoTechnology). After a 30 minute equilibration period, cumulative concentrations of contractile agonists were applied to the TDA pressurized at 80 mmHg, and the vessel was visualized with an Olympus IX-71 microscope attached to a Hamamatsu EM-CCD camera coupled to Slidebook imaging software. […] Lastly, maximal diameter was measured at the end of each experiment in calcium-free Krebs-HEPES supplemented with EGTA (1 mmol/L) and sodium nitroprusside (10 μmol/L). In cases where the vessels were not constricting to the contractile agonist, their viability was assessed by applying 40 mM KCl and only TDA reaching 30% of the maximal diameter were considered for analysis. The contractile responses, as well as the basal tone, are expressed as a percentage of the maximal diameter.\nVessel transfection was performed as previously described by us. Briefly, after isolation, TDA were placed in cold, sterile RPMI supplemented with penicillin […] (Gibco), CaCl2 (2 mmol/L) and 1% BSA. Vessels were transferred to a cuvette containing 100 μL of Nucleofector solution (Lonza) containing 5 μg of plasmid, and subjected to electroporation. Arteries were then placed in supplemented RPMI media in an incubator for 14 to 18 hours until cannulation in the pressure arteriograph as described above.\nWe further tested the importance of the YLK sequence within the intracellular loop of Panx1 on phenylephrine-induced vasoconstriction using rescue experiments with intact arteries from mice lacking endogenous Panx1. We reintroduced Panx1 into the SMCs of TDAs from Cre^+/Panx1^F1 mice that had received tamoxifen by selectively transfecting these cells with a plasmid encoding Panx1^WT."}, "[2]": {"tested_on": "abdominal aortic rings", "assay": "Wire myography of abdominal aortic rings", "format": "cell-based, mouse", "conditions": "for EC50: Mus musculus, read-out: EC50 of phenylephrine, aortic ring contraction"}, "[3]": {"tested_on": "thoracodorsal arteries (TDA)"}, "[4]": {"tested_on": "thoracodorsal arteries (TDA)", "assay": "tissue or blood", "conditions": "Mus musculus"}, "[5]": {"tested_on": "C57Bl/6 mice", "assay": "Blood pressure by radiotelemetry after peptide injection", "format": "in vivo, mouse", "conditions": "conscious C57Bl/6 mice, acute intraperitoneal injection, within 1.5 hours; 5 mg/kg or 20 mg/kg", "experimental": "Blood pressure was measured using radiotelemetry units (Data Sciences International, DSI) implanted in C57Bl/6, Cre^−/Panx1^F1, Cre^−/Panx1^WT, Cre^+/Panx1^WT, and Cre^+/Panx1^F1 mice. The catheter of a radiotelemetry unit (TA11PA-C10, DSI) was implanted in the mouse left carotid artery under isoflurane anesthesia, and the catheter was tunneled trough the radiotransmitter placed in a subcutaneous pouch along the right flank of the mouse, as previously described. After implantation, mice were allowed to recover for seven days.\n[…] Blood pressure was recorded for another 1.5 hours, and the mean arterial pressure data from 1 to 1.5 hours post injection was averaged and compared to the basal blood pressure. The ΔMAP was calculated by subtracting the average mean arterial pressure measured for 30 minutes prior to injection to the mean arterial pressure measured for 30 minutes one hour post injection. […]\nBased on the central role of α1AR signaling in blood pressure homeostasis, we evaluated the effect of Panx1 deletion on systemic blood pressure. Blood pressure was measured using radiotelemetry units as previously described by us. Blood pressure was measured on the conditional KO mouse model for five days before proceeding to tamoxifen injections, and for another five days 24 hours after the last tamoxifen injection. […]"}, "[6]": {"tested_on": "resistance arterioles", "assay": "Diameter of resistance arterioles isolated from adipose tissue of hypertensive subjects", "format": "cell-based, human", "conditions": "arterioles from treatment resistant hypertension patients", "from_the_text": "The resistance arterioles were isolated from adipose tissue. Treatment resistant hypertension: >3 continue to have high blood pressure."}, "[7]": {"tested_on": "mice", "assay": "Cecal ligation puncture (CLP) model of sepsis", "format": "in vivo, mouse", "from_the_text": "Knockout of Panx1 specifically from the endothelium or treatment of mice with PanX both reversed the decreased in heat rate typically observed after induction of sepsis. […] Knockout of Panx1 specifically from the endothelium or treatment of mice with PanX both reversed the increased level of blood urea nitrogen, which is due in large part to increased vein permeability in sepsis. The three groups in each graph are Control (left bar), Panx1 Endothelial Cell Knockout Mouse (middle bar), and Control+IL2 (PanX) Peptide treatment."}, "[8]": {"conditions": "TDAs from Cre^+/Panx1^FL with tamoxifen + Panx1^WT"}, "[9]": {"conditions": "TDAs from Cre^+/Panx1^FL with tamoxifen + Panx1^YLK>AAA"}, "[10]": {"conditions": "TDAs from Cre^+/Panx1^FL with tamoxifen, electroporated without plasmid"}, "[11]": {"conditions": "TDAs from Cre^+/Panx1^FL, no tamoxifen, electroporated without plasmid"}, "[12]": {"conditions": "aortic rings from Cre^+/Panx1^FL with tamoxifen"}, "[13]": {"conditions": "aortic rings from Cre^+/Panx1^FL, peanut oil"}}, "note": "Like-named read-outs stand apart in the source and are kept apart here.", "data": [{"compound": "CNC[C@H](O)c1cccc(O)c1", "note": "[Phenylephrine, phenylephrine]", "values": [{"measurement": "EC50", "setting": "[1]; [8]", "value": "450 ± 330", "unit": "nM"}, {"measurement": "EC50", "setting": "[1]; [9]", "value": "630 ± 530", "unit": "nM"}, {"measurement": "EC50", "setting": "[1]; [10]", "value": "1130 ± 770", "unit": "nM"}, {"measurement": "EC50", "setting": "[1]; [11]", "value": "640 ± 230", "unit": "nM"}, {"measurement": "EMAX of phenylephrine-induced constriction", "setting": "[1]; [8]", "value": "34.2 ± 6.15 percentage of maximal diameter"}, {"measurement": "EMAX of phenylephrine-induced constriction", "setting": "[1]; [9]", "value": "56.9 ± 5.84 percentage of maximal diameter"}, {"measurement": "EMAX of phenylephrine-induced constriction", "setting": "[1]; [10]", "value": "57.5 ± 9.20 percentage of maximal diameter"}, {"measurement": "EMAX of phenylephrine-induced constriction", "setting": "[1]; [11]", "value": "32.9 ± 4.85 percentage of maximal diameter"}, {"measurement": "EC50", "setting": "[2]; [12]", "value": "3200 ± 320", "unit": "nM"}, {"measurement": "EC50", "setting": "[2]; [13]", "value": "3390 ± 380", "unit": "nM"}, {"measurement": "EMAX of phenylephrine, aortic ring contraction", "setting": "[2]; [12]", "value": "343.4 ± 69.4 percentage of constriction to KCl"}, {"measurement": "EMAX of phenylephrine, aortic ring contraction", "setting": "[2]; [13]", "value": "368.8 ± 78.7 percentage of constriction to KCl"}, {"measurement": "EMAX of agonist for TDA constriction", "setting": "[3]; TDAs from Cre^+/Panx1^FL mice, tamoxifen-injected (SMC Panx1 knockout)", "value": "69.1 ± 3.06 percentage of maximal diameter"}, {"measurement": "EMAX of agonist for TDA constriction", "setting": "[3]; TDAs from Cre^+/Panx1^FL mice, tamoxifen-injected (SMC Panx1 knockout), listed as phenylephrine", "value": "69.1±3.06 percentage of maximal diameter"}, {"measurement": "EMAX of agonist for TDA constriction", "setting": "[3]; TDAs from Cre^+/Panx1^WT mice, tamoxifen-injected", "value": "53.5 ± 4.91 percentage of maximal diameter"}, {"measurement": "EMAX of agonist for TDA constriction", "setting": "[3]; TDAs from Cre^−/Panx1^FL mice, tamoxifen-injected", "value": "46.3 ± 5.94 percentage of maximal diameter"}, {"measurement": "EMAX of agonist for TDA constriction", "setting": "[3]; TDAs from Cre^−/Panx1^WT mice, tamoxifen-injected", "value": "51.8 ± 2.66 percentage of maximal diameter"}, {"measurement": "EMAX of agonist for TDA constriction", "setting": "[3]; TDAs isolated from the three control genotypes", "value": "approximately 50 % of maximal diameter"}, {"measurement": "EC50", "setting": "[4]; read-out: EC50 of agonist for TDA constriction, TDAs from Cre^+/Panx1^FL mice, tamoxifen-injected (SMC Panx1 knockout)", "value": "7840 ± 5600", "unit": "nM"}, {"measurement": "EC50", "setting": "[4]; read-out: EC50 of agonist for TDA constriction, TDAs from Cre^+/Panx1^WT mice, tamoxifen-injected", "value": "1790 ± 1130", "unit": "nM"}, {"measurement": "EC50", "setting": "[4]; read-out: EC50 of agonist for TDA constriction, TDAs from Cre^−/Panx1^FL mice, tamoxifen-injected", "value": "640 ± 370", "unit": "nM"}, {"measurement": "EC50", "setting": "[4]; read-out: EC50 of agonist for TDA constriction, TDAs from Cre^−/Panx1^WT mice, tamoxifen-injected", "value": "660 ± 130", "unit": "nM"}]}, {"compound": "KYPIVEQYLKYGRKKQRRR [IL2]", "values": [{"measurement": "reduction of mean arterial blood pressure", "setting": "[5]", "value": "13.0±3.3", "unit": "mmHg"}, {"measurement": "effect on hyperconstriction of resistance arterioles", "setting": "[6]", "value": "significantly reduces hyperconstriction"}, {"measurement": "effect on decreased heart rate after induction of sepsis", "setting": "[7]", "value": "reversed"}, {"measurement": "effect on increased blood urea nitrogen after induction of sepsis", "setting": "[7]", "value": "reversed"}]}, {"compound": "scrambled intracellular loop 2 IYLYVEQKPY (SEQ ID NO: 7) linked with a TAT sequence [Scrambled IL2]", "values": [{"measurement": "reduction of mean arterial blood pressure", "setting": "[5]", "value": "no significant effect"}]}]}
